Measurements as given in patent publication US9980976B2, “Use of REDD1 inhibitors to dissociate therapeutic and adverse atrophogenic effects of glucocorticoid receptor agonists” (Northwestern University, priority 2015, dated 2018).

How the values were obtained:
[1] = system: LC3; assay: Autophagy in mouse epidermis (LC3-I to LC3-II conversion, Beclin-1); format: in vivo; settings: FA-treated mouse skin
Protocol: In accordance, we observed in FA-treated skin the conversion of light chain 3 (LC3) from its free form (LC3-I) to a membrane-bound state (LC3-II), a key step that initiates autophagy in mammalian cells (Klionsky et al, 2012). LC3-I to LC3-II conversion reached its maximum 8 h after FA treatment and paralleled with the increase of another autophagy marker Beclin-1, highest REDD1 expression and strongest repression of mTOR activity (FIGS. 2C, D).
The whole-cell protein extracts were prepared using RIPA buffer with protease and phosphatase inhibitor cocktails (Thermo Scientific, Thermo Fisher Scientific Inc., Waltham, Mass., USA), resolved by SDS-PAGE on 4-20% gels and transferred to Odyssey nitrocellulose membranes (LI-COR Biosciences, Lincoln, Neb., USA). Membranes were blocked with Odyssey Blocking Buffer and incubated with primary antibodies overnight at 4° C., followed by IRDye® secondary antibodies (LI-COR Biosciences). LI-COR Odyssey Imager was used for the band visualization. Equal loading and adequate transfer to the membranes were verified by staining with Ponceau S (Sigma-Aldrich) and with anti-GAPDH (Sigma-Aldrich) antibody. We used Abs against: REDD1 (Proteintech Group, Inc., Chicago, Ill.), LC3B, phospho-rpS6Ser240/244, phospho-4E-BP1Thr37/46, phospho-GRSer211 (Cell Signaling Technology, Inc.), and GR (H-300 or M-20, Santa Cruz Biotechnology, Inc.).

[2] = system: croton oil-induced ear edema; assay: Croton oil-induced ear edema test; format: in vivo, mouse
[3] = system: FKBP51 and GILZ; assay: Q-PCR analysis of GR target genes FKBP51 and GILZ in HaCaT and CEM cells; format: cell-based, human; settings: FA 1 uM 24 h
Protocol: FIG. 13. Rapamycin inhibits GR transactivation. A, B. Q-PCR analysis of FKBP51 and GILZ expression in HaCaT (A) and CEM (B) cells. Cells were pretreated with solvent or Rapa (1 uM)×6 hrs and treated with solvent (Control) or FA (1 uM) for 24 h. A,B. Q-PCR results were normalized to the expression of the housekeeping Rp127 gene, and presented as fold of change compared to control cells. The means+/−SD calculated for three individual RNA samples/condition. a—Statistically significant difference (P<0.05) compared to control; b—Statistically significant differences (P<0.05) compared to FA treatment. C. Inhibitory effect of rapamycin on GRE.Luciferase reporter. […] The means+SD were calculated for three individual wells/group in one representative experiment (out of three experiments). a—Statistically significant differences (P<0.05) in comparison to vehicle treatment; b—Statistically significant differences (P<0.05) in comparison to FA treatment.
(§1) Total RNA from murine epidermis, whole human skin, and cell cultures was isolated with RiboPure kit (Ambion, Life Technologies, Grand Island, N.Y., USA). […] The gene expression was assessed using semi-quantitative two-step RT-PCR and quantitative Q-PCR. […] For semi-quantitative PCRs, Taq DNA polymerase (Promega) was used, and PCR products were separated on 1.5% agarose gel and visualized using automated imaging system (Bio-Rad, Hercules, Calif., USA). […]

[4] = system: NF-kB dependent genes cyclins D1 and D2, MMP1 and CD74; assay: Q-PCR analysis of NF-kB dependent genes in HaCaT and CEM cells; format: cell-based, human; settings: single treatments, 1 uM
Protocol: FIG. 14. Rapamycin enhances GR transrepression. A, B. Q-PCR analysis of MMP13 and CD74 expression in HaCaT cells (A) and cyclin D1 (CCND1) and cyclin D2 (CCND2) expression in CEM cells (B). Cells were pretreated with solvent or Rapa (1 uM)×6 hrs and treated with solvent (Control) or FA (1 uM) for 24 h. A, B. Q-PCR results were normalized to the expression of the housekeeping Rp127 gene, and presented as fold of change compared to control cells. The means+/−SD calculated for three individual RNA samples/condition. a—Statistically significant difference (P<0.05) compared to control; b—Statistically significant differences (P<0.05) compared to FA treatment. C. […] The means+SD were calculated for three individual wells/group in one representative experiment (out of three experiments). a—Statistically significant differences (P<0.05) in comparison to vehicle treatment; b—Statistically significant differences (P<0.05) in comparison to FA treatment.
as §1

[5] = system: GR; assay: GR phosphorylation at Ser211 (Western blot) in HaCaT and CEM cells; format: cell-based, human; settings: 1 uM FA
Protocol: FIG. 15. Rapamycin inhibits GR nuclear translocation and phosphorylation. A. GR nuclear translocation in HaCaT cells was determined by immunofluorescence as described in Materials and Methods. Cells on coverslips were pretreated with solvent (Control) or Rapamycin (1 uM×6 h) and treated with 1 uM FA for indicated time. B. GR nuclear translocation in CEM cells was determined by Western blot analysis of nuclear protein extracts. Membranes were probed with anti-HDAC-1 antibodies to verify equal protein loading and transfer. C, D. GR phosphorylation in HaCaT (C) and CEM (D) cells was determined by Western blot analysis of whole cell lysates. Membranes were probed with anti-GAPDH antibodies to verify equal protein loading and transfer.
The whole-cell protein extracts were prepared using RIPA buffer with protease and phosphatase inhibitor cocktails (Thermo Scientific, Thermo Fisher Scientific Inc., Waltham, Mass., USA), resolved by SDS-PAGE on 4-20% gels and transferred to Odyssey nitrocellulose membranes (LI-COR Biosciences, Lincoln, Neb., USA). Membranes were blocked with Odyssey Blocking Buffer and incubated with primary antibodies overnight at 4° C., followed by IRDye® secondary antibodies (LI-COR Biosciences). LI-COR Odyssey Imager was used for the band visualization. […]

## CC1(C)O[C@@H]2C[C@H]3[C@@H]4C[C@H](F)C5=CC(=O)C=C[C@]5(C)[C@@]4(F)[C@@H](O)C[C@]3(C)[C@]2(C(=O)CO)O1 [FA, fluocinolone acetonide]
[1]
  time of maximum LC3-I to LC3-II conversion after treatment: 8 h
[2]; croton oil 20 ul/ear, FA 1 ug/ear 1 h before CO, weighed 9 h after CO
  ear edema / ear weight: reduced edema decreasing the ear weight to control level
[2]; wild-type and REDD1 KO mice, FA 2 μg 1 h before croton oil, 9 h after CO
  anti-inflammatory effect (ear morphology and ear punch weight): relieved this inflammatory response with equal potency
[3]
  FKBP51 and GILZ expression: strongly activated
[4]
  basal expression of NF-kB dependent genes cyclins D1 and D2, MMP1 and CD74: inhibited
[5]
  GR phosphorylation at Ser211: induced quick GR phosphorylation
